Here are results for twelve molecules from US20230066011A1, “PYRROLOPYRIMIDINE DERIVATIVE, AND PHARMACEUTICAL COMPOSITION FOR PREVENTING OR TREATING PROTEIN KINASE-RELATED DISEASE COMPRISING SAME AS ACTIVE INGREDIENT” (VORONOI CO., LTD., priority 2019, published 2023).

One experiment concerns the target DYRK1 (Homo sapiens, UniProt Q13627). Kind of experiment: Kinase HotSpot service (Reaction Biology Corporation), DYRK1. It counts as biochemical. Conditions: ATP 10 uM, read-out: DYRK1 IC50 (values indicated by *). As to the method: The inhibitory activities of the compounds were measured at a 3-fold concentration gradient starting from a maximum compound concentration of […], and the values measured using the Kinase HotSpot service (Reaction Biology Corporation) are indicated by an asterisk (*).
All the experimental methods were performed as provided by the Kinase HotSpot Customer Protocol (http://www.reactionbiology.com//Kinase_Assay_Protocol).

For a further experiment, the target named is T1, GAK (Homo sapiens, UniProt O14976).
T1 construct: purchased DiscoverX Corp. (ScanMAX Kinase analysis panel, service)
T1 sequence (O14976 1-1311): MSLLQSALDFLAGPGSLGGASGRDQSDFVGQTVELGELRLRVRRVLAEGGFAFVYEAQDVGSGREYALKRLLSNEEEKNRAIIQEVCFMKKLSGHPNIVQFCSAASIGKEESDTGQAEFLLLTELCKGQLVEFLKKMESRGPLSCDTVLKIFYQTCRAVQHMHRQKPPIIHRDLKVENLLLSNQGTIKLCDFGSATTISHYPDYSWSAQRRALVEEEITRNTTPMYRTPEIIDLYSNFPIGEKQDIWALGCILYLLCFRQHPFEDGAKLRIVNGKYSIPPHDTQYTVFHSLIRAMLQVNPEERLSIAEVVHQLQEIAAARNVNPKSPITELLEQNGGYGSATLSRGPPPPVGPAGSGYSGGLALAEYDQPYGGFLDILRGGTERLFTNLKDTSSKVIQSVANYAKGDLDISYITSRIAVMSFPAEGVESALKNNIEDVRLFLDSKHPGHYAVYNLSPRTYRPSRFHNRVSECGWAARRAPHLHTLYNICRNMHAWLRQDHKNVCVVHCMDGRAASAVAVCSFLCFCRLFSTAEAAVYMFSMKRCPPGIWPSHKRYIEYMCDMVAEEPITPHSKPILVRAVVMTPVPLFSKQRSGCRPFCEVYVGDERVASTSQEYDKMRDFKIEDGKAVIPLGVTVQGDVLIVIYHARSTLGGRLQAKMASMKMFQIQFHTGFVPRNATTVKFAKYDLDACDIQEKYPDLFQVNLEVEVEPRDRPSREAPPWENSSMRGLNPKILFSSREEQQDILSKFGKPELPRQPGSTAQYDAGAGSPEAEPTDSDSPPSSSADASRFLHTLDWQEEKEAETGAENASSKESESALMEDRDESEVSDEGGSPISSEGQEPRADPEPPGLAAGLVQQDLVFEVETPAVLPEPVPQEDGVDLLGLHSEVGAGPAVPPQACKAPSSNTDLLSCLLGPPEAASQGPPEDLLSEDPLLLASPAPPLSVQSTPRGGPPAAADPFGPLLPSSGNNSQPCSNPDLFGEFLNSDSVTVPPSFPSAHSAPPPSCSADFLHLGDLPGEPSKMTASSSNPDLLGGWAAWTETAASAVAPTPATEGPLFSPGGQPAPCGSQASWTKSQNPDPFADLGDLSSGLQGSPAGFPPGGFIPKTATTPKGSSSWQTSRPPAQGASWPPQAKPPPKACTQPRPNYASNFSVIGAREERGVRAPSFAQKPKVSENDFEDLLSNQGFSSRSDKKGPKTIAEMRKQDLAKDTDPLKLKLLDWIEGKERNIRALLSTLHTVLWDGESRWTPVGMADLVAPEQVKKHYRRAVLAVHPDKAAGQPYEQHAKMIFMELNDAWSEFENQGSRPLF
Nature of the experiment: ScanMAX Kinase analysis panel, GAK. It counts as binding. The following applies: 1 μM in DMSO; <35% considered inhibitory; read-out: percent control (% control), GAK. As for the experimental part: (§1) Specifically, the enzyme (kinase) selectivity of Example compounds 238, 361, 411, 157, 161, 228, and 158 selected from the Example compounds of the present invention was determined by commissioning DiscoverX Corp., and an experiment was performed using a ScanMAX™ Kinase analysis panel. In this case, a concentration of the drug with which the enzymes were treated was 1 μM in DMSO, and the percent control (% control) was defined in the same manner as in the following Expression 1.
(§2) (Example Compound−Positive Control)/(Negative Control−Positive Control)×100 [Expression 1]
(§3) wherein the positive control represents a compound having a percent control of 0%, and the negative control represents DMSO having a percent control of 100%. For the enzyme selectivity of the present invention, it was considered that the compound has an inhibitory activity on each of the enzymes when the percent control for the corresponding enzyme was <35% (i. e., less than 35%).

The next experiment deals with T2, CSNK1E (Homo sapiens, UniProt P49674).
T2 construct: purchased DiscoverX Corp. (ScanMAX Kinase analysis panel, service)
T2 sequence (P49674 whole entry): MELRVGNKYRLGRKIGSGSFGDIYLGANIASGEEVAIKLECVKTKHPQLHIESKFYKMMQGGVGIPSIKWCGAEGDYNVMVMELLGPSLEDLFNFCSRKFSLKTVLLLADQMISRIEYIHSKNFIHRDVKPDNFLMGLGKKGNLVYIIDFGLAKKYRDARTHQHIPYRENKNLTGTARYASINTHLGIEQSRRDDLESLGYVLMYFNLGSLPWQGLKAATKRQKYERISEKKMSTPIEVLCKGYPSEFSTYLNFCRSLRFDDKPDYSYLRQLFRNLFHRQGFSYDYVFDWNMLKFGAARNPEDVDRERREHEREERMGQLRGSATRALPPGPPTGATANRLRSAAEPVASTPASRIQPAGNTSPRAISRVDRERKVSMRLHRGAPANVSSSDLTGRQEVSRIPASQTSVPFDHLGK
Kind of experiment: ScanMAX Kinase analysis panel, CSNK1E. It counts as binding. Conditions: 1 μM in DMSO; <35% considered inhibitory; read-out: percent control (% control), CSNK1E. As for the experimental part:
as §1, §2, §3

The next experiment deals with T3, CSNK1D (Homo sapiens, UniProt P48730).
T3 construct: purchased DiscoverX Corp. (ScanMAX Kinase analysis panel, service)
T3 sequence (P48730 whole entry): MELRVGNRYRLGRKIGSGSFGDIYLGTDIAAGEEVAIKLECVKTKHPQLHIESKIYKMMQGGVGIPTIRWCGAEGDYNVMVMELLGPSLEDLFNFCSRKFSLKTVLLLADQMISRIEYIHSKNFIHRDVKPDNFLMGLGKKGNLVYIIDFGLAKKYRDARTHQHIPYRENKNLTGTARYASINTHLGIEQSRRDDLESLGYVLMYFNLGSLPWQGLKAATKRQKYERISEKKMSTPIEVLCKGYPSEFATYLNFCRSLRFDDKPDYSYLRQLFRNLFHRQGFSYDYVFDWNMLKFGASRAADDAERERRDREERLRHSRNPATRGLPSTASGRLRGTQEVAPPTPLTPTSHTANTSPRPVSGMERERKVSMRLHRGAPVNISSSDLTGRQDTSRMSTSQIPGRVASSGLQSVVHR
Kind of experiment: ScanMAX Kinase analysis panel, CSNK1D. The experiment is classed as binding. Conditions: 1 μM in DMSO; <35% considered inhibitory; read-out: percent control (% control), CSNK1D. As to the method: as §1, §2, §3

Molecules are shown by their SMILES. Some results are limits rather than exact numbers.

As usually defined, the IC50 is the midpoint of a concentration-inhibition curve.

As to `COc1cc(S(=O)(=O)N2CCOCC2)ccc1Nc1nc(C2CC2)c2c(C#N)c[nH]c2n1` [Example 223, 4-cyclopropyl-2-((2-methoxy-4-(morpholinosulfonyl)phenyl)amino)-7H-pyrrolo[2,3-d]pyrimidine-5-carbonitrile], on DYRK1, the IC50 is 101 to 300 nM.
On to `O=C(c1ccc(Nc2nc(C3CC3)c3c(C(F)(F)F)c[nH]c3n2)c2c1OCCO2)N1CCC(N2CCOCC2)CC1` [Example 228, (8-((4-cyclopropyl-5-(trifluoromethyl)-7H-pyrrolo[2,3-d]pyrimidin-2-yl)amino)-2,3-dihydrobenzo[b][1,4]dioxin-5-yl)(4-morpholinopiperidin-1-yl)methanone], for which the remaining binding at 1 µM at GAK stood at 3%; on CSNK1E it was 40%; at CSNK1D it was 45%. The IC50 at DYRK1 is below 100 nM.
`C=CCNc1nc(Nc2ccc(S(=O)(=O)N3CCC(N4CCOCC4)CC3)cc2OC)nc2[nH]cc(C#N)c12` [Example 361, 4-(allylamino)-2-((2-methoxy-4-((4-morpholino-piperidin-1-yl)sulfonyl)phenyl)amino)-7H-pyrrolo[2,3-d]pyrimidine-5-carbonitrile]: the results for the remaining binding at 1 µM on GAK, at CSNK1E and on CSNK1D were 2.7%, 0.05% and 3.9%, respectively.
`CNc1nc(Nc2ccc(P3(=O)CCN(C4CC4)CC3)cc2OC)nc2[nH]cc(C(F)(F)F)c12` [Example 411, 1-cyclopropyl-4-(3-methoxy-4-((4-(methylamino)-5-(trifluoromethyl)-7H-pyrrolo[2,3-d]pyrimidin-2-yl)amino)phenyl)-1,4-azaphosphinane-4-oxide]: the values for the remaining binding at 1 µM at GAK, at CSNK1E and at CSNK1D were 2.4%, 31% and 14%, respectively.
In the case of `CCCNc1nc(Nc2ccc(S(=O)(=O)N3CCC(N4CCOCC4)CC3)cc2OC)nc2[nH]cc(C(F)(F)F)c12` [Example 161, N^2-(2-methoxy-4-((4-morpholinopiperidin-1-yl)sulfonyl)phenyl)-N^4-propyl-5-(trifluoromethyl)-7H-pyrrolo[2,3-d]pyrimidine-2,4-diamine], the remaining binding at 1 µM on GAK came to 4%; on CSNK1E it was 12%; at CSNK1D, 15%. Moreover, the IC50 on DYRK1 is below 100 nM.
In the same order, the values of `CCNc1nc(Nc2ccc(S(=O)(=O)N3CCC(N4CCOCC4)CC3)cc2OC)nc2[nH]cc(C(F)(F)F)c12` [Example 158, N^4-ethyl-N^2-(2-methoxy-4-((4-morpholinopiperidin-1-yl)sulfonyl)phenyl)-5-(trifluoromethyl)-7H-pyrrolo[2,3-d]pyrimidine-2,4-diamine 2,2,2-trifluoroacetate] are 21%, 3.3%, 5.3% and below 100 nM.
`COc1cc(S(=O)(=O)N2CCC(N3CCOCC3)CC2)ccc1Nc1nc(C2CC2)c2c(C(F)(F)F)c[nH]c2n1` [Example 226]: the IC50 at DYRK1 is below 100 nM.
With `COc1cc(S(=O)(=O)N2CCC(N3CCOCC3)CC2)ccc1Nc1nc(C2CC2)c2c(C#N)c[nH]c2n1` [Example 224, 4-cyclopropyl-2-((2-methoxy-4-((4-morpholinopiperidin-1-yl)sulfonyl)phenyl)amino)-7H-pyrrolo[2,3-d]pyrimidine-5-carbonitrile], on DYRK1, the IC50 was below 100 nM.
Regarding `CNc1nc(Nc2ccc(S(=O)(=O)N3CCC(N4CCOCC4)CC3)cc2OC)nc2[nH]cc(C(F)(F)F)c12` [Example 157, N^2-(2-methoxy-4-((4-morpholinopiperidin-1-yl)sulfonyl)phenyl)-N^4-methyl-5-(trifluoromethyl)-7H-pyrrolo[2,3-d]pyrimidine-2,4-diamine 2,2,2-trifluoroacetate], the figures for the remaining binding at 1 µM at GAK, at CSNK1E and on CSNK1D were 4.2%, 2.4% and 2.9%, respectively.
Regarding `COc1cc(S(=O)(=O)N2CCC(N3C[C@H]4C[C@@H]3CO4)CC2)ccc1Nc1nc(C2CC2)c2c(C(F)(F)F)c[nH]c2n1` [Example 473, N-(4-((4-((1R,4R)-2-oxa-5-azabicyclo[2.2.1]heptan-5-yl)piperidin-1-yl)sulfonyl)-2-methoxyphenyl)-4-cyclopropyl-5-(trifluoromethyl)-7H-pyrrolo[2,3-d]pyrimidin-2-amine], at DYRK1, the IC50 is below 100 nM.
The same measure, in the same setting: the figure for `CCN1CCP(=O)(c2ccc(Nc3nc(C4CC4)c4c(C#N)c[nH]c4n3)c(OC)c2)CC1` [Example 261] is below 100 nM.
Regarding `CNc1nc(Nc2ccc(C(=O)N3CCC(N4CCOCC4)CC3)c3c2OCCO3)nc2[nH]cc(C(F)(F)F)c12` [Example 238, (8-((4-(methylamino)-5-(trifluoromethyl)-7H-pyrrolo[2,3-d]pyrimidin-2-yl)amino)-2,3-dihydrobenzo[b][1,4]dioxin-5-yl)(4-morpholinopiperidin-1-yl)methanone], the figures for the remaining binding at 1 µM at GAK, on CSNK1E and on CSNK1D were 3.1%, 32% and 16%, respectively.
